Measured values: patent US5130483A, “Isoprenoid derivatives and pharmaceutical preparations containing the same” (Terumo Kabushiki Kaisha, priority 1987, dated 1992)

Legend:
[1] = system: stomach lesions (ulcer index) in male Wistar rats; assay: Anti-ulcer activity (ethanol-hydrochloric acid gastric lesions); assay type: in vivo, rat (male Wistar); settings: 100 mg/kg, oral, 1 h before ethanol-hydrochloric acid; male Wistar rats fasted 24 h
Experimental: To male Wistar rats (weighing 150-200 g) fasted for 24 hours was administered orally an isoprenoid derivative of the invention. One hour later, ethanol-hydrochloric acid (containing 150 mM hydrochloric acid in 60% ethanol) was orally given in a volume of 0.5 ml/100 g bodyweight.
One hour later, the animals were sacrificed with ether. The stomach was excised and, after formalin treatment, measured for the length (mm) of lesions developed in glandular portions of the stomach. Total length of the lesions per animal was taken as ulcer index.
Percent inhibition of ulceration as referred to in the table is a value indicating the ulcer index for the rat without an isoprenoid derivative of the invention orally given minus the ulcer index for the orally administered rat divided by the ulcer index for the orally non-administered rat multiplied by 100.

5-lipoxygenase [2] = target: T1, 5-lipoxygenase (Rattus norvegicus, UniProt P12527); assay: 5-Lipoxygenase-inhibiting activity (Test Example 1, HPLC of 5-HETE); assay type: biochemical; settings: RBL-1 cell supernatant; 50 μg arachidonic acid; pH 7.4; 37° C., 15 min; HPLC peak of 5-HETE; read-out: 50% Inhibitory concentration
T1 construct: The supernatant is employed as an enzyme solution of a 5-lipoxygenase; endogenous in cells; host or cells: RBL-1 rat basophilic leukemia cells, sonicated, 15,000 rpm supernatant (crude, not purified)
T1 sequence (P12527 1-673): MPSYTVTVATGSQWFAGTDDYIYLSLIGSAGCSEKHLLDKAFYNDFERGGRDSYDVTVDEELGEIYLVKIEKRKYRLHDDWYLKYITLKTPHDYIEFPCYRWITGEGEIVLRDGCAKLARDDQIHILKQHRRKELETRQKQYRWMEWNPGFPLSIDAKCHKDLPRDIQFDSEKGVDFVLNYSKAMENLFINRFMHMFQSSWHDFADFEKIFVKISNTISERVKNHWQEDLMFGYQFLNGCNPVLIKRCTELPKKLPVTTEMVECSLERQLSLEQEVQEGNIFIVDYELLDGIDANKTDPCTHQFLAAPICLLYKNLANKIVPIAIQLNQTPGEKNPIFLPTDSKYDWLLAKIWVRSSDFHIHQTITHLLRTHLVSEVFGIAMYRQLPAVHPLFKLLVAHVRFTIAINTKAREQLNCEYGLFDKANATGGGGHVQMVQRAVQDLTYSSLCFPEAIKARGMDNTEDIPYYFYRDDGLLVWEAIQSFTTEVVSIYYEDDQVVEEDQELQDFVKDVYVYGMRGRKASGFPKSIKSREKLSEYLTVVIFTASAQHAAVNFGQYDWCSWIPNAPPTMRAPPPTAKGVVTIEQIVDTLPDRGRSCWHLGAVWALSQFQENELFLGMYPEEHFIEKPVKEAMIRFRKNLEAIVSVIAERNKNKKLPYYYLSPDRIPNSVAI
Experimental: A suspension of rat-origin basophilic leukemia cell strain RBL-1 in an Eagle basal medium (manufactured by Gibco Laboratories) containing 10% FCS is cultivated in an 5% CO2 incubator at 37° C. The culture is then centrifuged at 4° C. to collect cells. The cells are re-suspended in a phosphate buffer solution at pH 7.4 to a cell density of 1.0-3.0×10^7 cells/ml. The suspended cells are treated by an ultrasonic cell blender and then centrifuged at 15,000 rpm at 4° C. for 30 min. The supernatant is employed as an enzyme solution of a 5-lipoxygenase. In test tubes are placed 50 μg of arachdonic acid and an isoprenoid derivative of the invention to be tested. To each of the test tubes are added 0.30 ml of phosphate buffer, 0.20 ml of the enzyme solution as prepared above and 5 μl of a 100 mM CaCl2 (calcium chloride) solution. The mixture is allowed to react at 37° C. for 15 min. To the reaction mixture, after ice-cooling, is added one drop of 1N HCl (hydrochloric acid), and the resulting mass is extracted with 2 ml of ethyl acetate. The extract is concentrated to dryness followed by addition of 100 μl of methanol for use as a test specimen.
Said specimen is injected into octadecylsilane (ODS) reverse phase high performance liquid chromatography (HPLC), eluted with methanol - acetonitrile - water - acetic acid (15 : 45 : 35 : 0.01). Peak for 5-HETE (5-(s)-hydroxy-6,8,11,14-eicosatetraenoic acid), a 5-lipoxygenase product detected in approximately 25 min. is measured. The 5-lipoxygenase-inhibiting activity is determined by decrease in the peak for said 5-lipoxygenase product.
(§1) 50% inhibitory concentration as referred to in Tables 1 and 2 means concentration of an isoprenoid derivative required for controlling the production of […] as described above to 50% by introducing said isoprenoid derivative when production of 5-HETE without isoprenoid derivative of the invention is taken as 100%.

5-lipoxygenase [3] = target: T1, 5-lipoxygenase; assay: 5-Lipoxygenase-inhibiting activity (Test Example 2, radiolabeled arachidonic acid, TLC of 5-HETE); assay type: biochemical; settings: RBL-1 cell supernatant, pH 7.4, 37° C., 15 min, radio-TLC of 5-HETE, read-out: 50% Inhibitory concentration
Experimental: A suspension of rat-origin basophilic leukemia cell strain RBL-1 in an Eagle basal medium (manufactured by Gbco Laboratories) containing 10 % FCS is cultivated in a 5% CO2 incubator at 37° C. The culture is then centrifuged at 4° C. to collect cells. The cells are re-suspended in a phosphate buffer solution at pH 7.4 to a cell density of 1.0 -3.0×10^7 cells/ml. The suspended cells are treated by an ultrasonic cell blender and then centrifuged at 15,000 rpm at 4° C. for 30 min. The supernant is employed as an enzyme solution of a 5-lipoxygenase. In test tubes are placed 20 μl of radiolabeled arachidonic acid (10 μl Ci/ml) and an isoprenoid derivative of the invention to be tested. To each of the test tubes are added 0.40 ml of phosphate buffer, 0.10 ml of the enzyme solution as prepared above and […] of a 100 mM CaCl2 (calcium chloride). The mixture is allowed to react at 37° C. for 15 min. To the reaction mixture, after ice-cooling, is added one drop of 1N HCl (hydrochloric acid), and the resulting mass is extracted with 2 ml of ethyl acetate. The extract is concentrated, and the concentrate is spotted and developed on a silica gel thin layer plate (Merck 60F254). Measurement of the inhibitory activity is accomplished by collecting the portion corresponding to 5-HETE (5-(s)-hydroxy-6,8,11,14-eicosatetraenoic acid), a 5-lipoxygenase product detected by a radio-thin layer chromatogram scanner (Dunnschicht-Scanner II LB2723, manufactured by Berthold) and measuring radioactivity by a liquid scintillation counter. The 5-lipoxygenase-inhibiting activity is determined by decrease in the production of said 5-lipoxygenase product.
as §1

Row | IC50 (5-lipoxygenase [2]) | IC50 (5-lipoxygenase [3]) | Compound | Percent inhibition of ulceration [1]
1 | 380 nM |  | COc1cc(/C=C/C=C/C(=O)CC/C=C(\C)CCC=C(C)C)ccc1O [Example 2, 9,13-dimethyl-1-(4'-hydroxy-3'-methoxyphenyl)-1,3,8,12-tetradecatetraen-5-one] | 94.6%
2 | 500 nM |  | COc1cc(/C=C/C=C/C(=O)CCC=C(C)C)ccc1O [Example 1, 1-(4'-hydroxy-3'-methoxyphenyl)-9-methyl-1,3,8-decatrien-5-one] | 79.3%
3 |  | 11 nM | CC(C)=CCC/C(C)=C/CNC(=O)/C=C/C=C/c1ccc(O)c(O)c1 [Example 15, 5-(3',4'-dihydroxyphenyl)pentadienoic acid geranylamide] | 
4 |  | 650 nM | COc1cc(/C=C/C=C/C(=O)NCC=C(C)C)ccc1O [Example 11, 5-(4'-hydroxy-3'methoxyphenyl)pentadienoic acid prenylamide] | 
5 | 800 nM |  | COc1cc(/C=C/C=C/C(=O)CC/C=C(\C)CC/C=C(\C)CCC=C(C)C)ccc1O [Example 3, 1-(4'-hydroxy-3'-methoxyphenyl)-9,13,17-trimethyl-1,3,8,12,16-octadecapentaen-5-one] | 85.0%
6 |  | 3000 nM | COc1cc(/C=C/C(=O)OCC=C(C)C)ccc1O [Example 5, prenyl 4-hydroxy-3-methoxycinnamate] | 
7 |  | 920 nM | COc1cc(/C=C/C(=O)NC/C=C(\C)CCC=C(C)C)ccc1O [Example 14, 4-hydroxy-3-methoxycinnamic acid geranylamide] | 
8 | 80 nM |  | CC(C)=CCCC(=O)/C=C/c1ccc(O)c(O)c1 [Example 4, 1-(3',4'-dihydroxyphenyl)-7-methyl-1,6-octadien-3-one] | 
9 |  | 26 nM | CC(C)=CCOC(=O)/C=C/C=C/c1ccc(O)c(O)c1 [Example 7, prenyl 5-(3,4-dihydroxyphenyl)-2,4-pentadienoate] | 
10 |  | 1200 nM | COc1cc(/C=C/C=C/C(=O)OC/C=C(\C)CCC=C(C)C)ccc1O [Example 8, geranyl 5-(4-hydroxy-3-methoxyphenyl)-2,4-pentadienoate] | 
11 |  | 260 nM | CC(C)=CCC/C(C)=C/COC(=O)/C=C/C=C/c1ccc(O)c(O)c1 [Example 9, geranyl 5-(3,4-dihydroxyphenyl)-2,4-pentadienoate] | 
12 |  | 310 nM | COc1cc(/C=C/C=C/C(=O)NC/C=C(\C)CC/C=C(\C)CCC=C(C)C)ccc1O [Example 13, 5-(4'-hydroxy3'-methoxyphenyl)pentadienoic acid (E,E)-farnesylamide] | 
13 |  | 400 nM | COc1cc(/C=C/C=C/C(=O)OCC=C(C)C)ccc1O [Example 6, prenyl 5-(3-methoxy-4-hydroxyphenyl)-2,4-pentadienoate] | 
14 |  | 83 nM | COc1cc(/C=C/C=C/C(=O)NC/C=C(\C)CCC=C(C)C)ccc1O [Example 12, 5-(4'-hydroxy-3-methoxyphenyl)pentadienoic acid geranylamide] | 
